Experimental data reported in patent US9802960B2 (MILLENNIUM PHARMACEUTICALS, INC., priority 2014, dated 2017).

biological target: Human VPS34 (Homo sapiens (Human), UniProt Q8NEB9); assay: Human VPS34 enzyme assay (Adapta TR-FRET); assay type: biochemical; conditions: compound concentration 1.11 μM; read-out: Percent Inhibition
Sequence (Q8NEB9 whole entry): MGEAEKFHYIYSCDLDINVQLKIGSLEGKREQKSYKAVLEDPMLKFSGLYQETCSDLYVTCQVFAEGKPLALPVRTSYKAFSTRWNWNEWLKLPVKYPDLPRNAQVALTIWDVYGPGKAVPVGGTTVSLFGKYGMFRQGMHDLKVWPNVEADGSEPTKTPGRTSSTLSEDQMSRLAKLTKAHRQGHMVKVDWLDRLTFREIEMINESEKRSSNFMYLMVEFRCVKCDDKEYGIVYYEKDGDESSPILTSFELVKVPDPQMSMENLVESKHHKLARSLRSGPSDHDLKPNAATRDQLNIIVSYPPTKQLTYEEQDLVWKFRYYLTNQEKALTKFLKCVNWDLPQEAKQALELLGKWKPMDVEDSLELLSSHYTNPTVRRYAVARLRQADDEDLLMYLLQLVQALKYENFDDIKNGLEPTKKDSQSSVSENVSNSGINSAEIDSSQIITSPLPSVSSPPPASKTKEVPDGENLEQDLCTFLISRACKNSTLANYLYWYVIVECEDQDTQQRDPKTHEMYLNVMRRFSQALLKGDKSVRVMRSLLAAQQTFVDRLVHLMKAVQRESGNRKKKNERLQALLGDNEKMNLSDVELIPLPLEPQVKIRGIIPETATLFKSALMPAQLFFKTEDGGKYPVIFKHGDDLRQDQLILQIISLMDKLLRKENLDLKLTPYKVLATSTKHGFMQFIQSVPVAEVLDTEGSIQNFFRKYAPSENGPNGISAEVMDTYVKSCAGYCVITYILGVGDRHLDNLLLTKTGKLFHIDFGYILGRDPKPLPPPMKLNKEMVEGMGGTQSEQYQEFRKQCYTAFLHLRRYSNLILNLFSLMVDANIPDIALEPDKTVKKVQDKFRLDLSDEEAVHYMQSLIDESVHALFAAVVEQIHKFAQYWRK

Row | Compound | inhibition at 1.11 µM
1 | Cc1ccc(Oc2cc(-c3ccnc(Nc4ccnc(C)n4)c3)cnc2C)nc1 [Compound I-390, 6-methyl-5-[(5-methylpyridin-2-yl)oxy]-N-(2-methylpyrimidin-4-yl)-3,4′-bipyridin-2′-amine] | 98%
2 | CC(=O)Nc1cc(-c2cncc(S(=O)(=O)N3CC(F)(F)C3)c2)ccn1 [Compound I-391, N-{5-[(3,3-difluoroazetidin-1-yl)sulfonyl]-3,4′-bipyridin-2′-yl}acetamide] | > 99%
3 | CC(=O)Nc1cc(-c2cnc(C)c(Nc3nc4ccccc4o3)c2)ccn1 [Compound I-392, N-[5-(1,3-benzoxazol-2-ylamino)-6-methyl-3,4′-bipyridin-2′-yl]acetamide] | 82%
4 | CC(=O)Nc1cc(-c2cncc(NS(=O)(=O)c3ccc(F)cc3F)c2Cl)ccn1 [Compound I-394, N-(4-chloro-5-{[(2,4-difluorophenyl)sulfonyl]amino}-3,4′-bipyridin-2′-yl)acetamide] | > 99%
5 | CC(=O)Nc1cc(-c2cnc(C)c(S(N)(=O)=O)c2)ccn1 [Compound I-395, N-(6-methyl-5-sulfamoyl-3,4′-bipyridin-2′-yl)acetamide] | > 99%
6 | CC(=O)Nc1cc(-c2cncc(S(=O)(=O)NC3CCC3)c2)ccn1 [Compound I-396, N-[5-(cyclobutylsulfamoyl)-3,4′-bipyridin-2′-yl]acetamide] | 94%
7 | CC(=O)Nc1cc(-c2cncc(N(C)C(=O)c3ccc(F)cc3F)c2)ccn1 [Compound I-397, N-(2′-acetamido-3,4′-bipyridin-5-yl)-2,4-difluoro-N-methylbenzamide] | 100%
8 | CC(=O)Nc1cc(-c2cnc(C)c(N(C)C(=O)c3ccc(F)cc3F)c2)ccn1 [Compound I-398, N-(2′-acetamido-6-methyl-3,4′-bipyridin-5-yl)-2,4-difluoro-N-methylbenzamide] | 93%
9 | CC(=O)Nc1cc(-c2cnc(Cl)c(NS(=O)(=O)c3ccc(Cl)cc3F)c2C)ccn1 [Compound I-399, N-(6-chloro-5-{[(4-chloro-2-fluorophenyl)sulfonyl]amino}-4-methyl-3,4′-bipyridin-2′-yl)acetamide] | 100%
10 | CC(=O)Nc1cc(-c2cnc(Cl)c(NS(=O)(=O)c3cc(Cl)ccc3Cl)c2C)ccn1 [Compound I-401, N-(6-chloro-5-{[(2,5-dichlorophenyl)sulfonyl]amino}-4-methyl-3,4′-bipyridin-2′-yl)acetamide] | > 99%
11 | Cc1nccc(Nc2cc(-c3cnc(Cl)c(C(=O)O)c3C)ccn2)n1 [Compound I-402, 6-chloro-4-methyl-2′-[(2-methylpyrimidin-4-yl)amino]-3,4′-bipyridine-5-carboxylic acid] | 93%
12 | CC(=O)Nc1cc(-c2cnc(Cl)c(S(=O)(=O)N[C@@H](CO)c3ccccc3)c2)ccn1 [Compound I-403, N-(6-chloro-5-{[(1R)-2-hydroxy-1-phenylethyl]sulfamoyl}-3,4′-bipyridin-2′-yl)acetamide] | 92%
13 | CC(=O)Nc1cc(-c2cc(NS(=O)(=O)c3ccc(F)cc3F)c3ccnn3c2)ccn1 [Compound I-404, N-[4-(4-{[(2,4-difluorophenyl)sulfonyl]amino}pyrazolo[1,5-a]pyridin-6-yl)pyridin-2-yl]acetamide] | 94%
14 | CC(=O)Nc1cc(-c2cncc(N3CCOc4cc(F)ccc4S3(=O)=O)c2)ccn1 [Compound I-405] | > 99%
15 | Cc1nccc(Nc2cc(-c3cnc4c(c3)C(=O)NCC4)ccn2)n1 [Compound I-406, 3-[2-[(2-methylpyrimidin-4-yl)amino]-4-pyridyl]-7,8-dihydro-6H-1,6-naphthyridin-5-one] | 80%
16 | Cc1nccc(Nc2cc(-c3cc(NC(=O)N4CC(F)(F)C4)c4ccnn4c3)ccn2)n1 [Compound I-407, 3,3-difluoro-N-(6-{2-[(2-methylpyrimidin-4-yl)amino]pyridin-4-yl}pyrazolo[1,5-a]pyridin-4-yl)azetidine-1-carboxamide] | 98%
17 | Cc1nccc(Nc2cc(-c3cncc(C(=O)N4CC(F)(F)C4)c3)ccn2)n1 [Compound I-408, (3,3-difluoroazetidin-1-yl){2′-[(2-methylpyrimidin-4-yl)amino]-3,4′-bipyridin-5-yl}methanone] | > 99%
18 | CC(=O)Nc1cc(-c2cnc(N)c(C(=O)NC(=N)N)c2)ccn1 [Compound I-409, 2′-acetamido-6-amino-N-carbamimidoyl-3,4′-bipyridine-5-carboxamide] | 82%
19 | CC(=O)Nc1cc(-c2cnc(Cl)c(S(=O)(=O)NC(C)(C)C)c2C)ccn1 [Compound I-410, N-[5-(tert-butylsulfamoyl)-6-chloro-4-methyl-3,4′-bipyridin-2′-yl]acetamide] | 96%
20 | CC(=O)Nc1cc(-c2cnc(C#N)c(NS(=O)(=O)c3ccc(F)cc3F)c2)ccn1 [Compound I-411, N-(6-cyano-5-{[(2,4-difluorophenyl)sulfonyl]amino}-3,4′-bipyridin-2′-yl)acetamide] | 88%
21 | CC(=O)Nc1cc(-c2cnc(C)c(NS(=O)(=O)CC(F)F)c2)ccn1 [Compound I-412, N-(5-{[(2,2-difluoroethyl)sulfonyl]amino}-6-methyl-3,4′-bipyridin-2′-yl)acetamide] | 97%
22 | O=C(c1cncc(-c2ccnc(Nc3ccnc(C4CC4)n3)c2)c1)N1CC(F)(F)C1 [Compound I-413] | > 99%
23 | CC(=O)Nc1cc(-c2cnc(C)c(NS(=O)(=O)c3ccc(F)cc3F)c2)cc(C)n1 [Compound I-414, N-(5-{[(2,4-difluorophenyl)sulfonyl]amino}-6,6′-dimethyl-3,4′-bipyridin-2′-yl)acetamide] | 89%
24 | Cc1nccc(Nc2cc(-c3cnc(C)c(C(=O)N4CC5(COC5)C4)c3)ccn2)n1 [Compound I-415, {6-methyl-2′-[(2-methylpyrimidin-4-yl)amino]-3,4′-bipyridin-5-yl}(2-oxa-6-azaspiro[3.3]hept-6-yl)methanone] | 82%

Next, values leading:

Row | inhibition at 1.11 µM | Compound
25 | > 99% | CC(=O)Nc1cc(-c2cnc(C)c(N3CC=CS3(=O)=O)c2)ccn1 [Compound I-416, N-[5-(1,1-dioxidoisothiazol-2(3H)-yl)-6-methyl-3,4′-bipyridin-2′-yl]acetamide]
26 | > 99% | COC(=O)Nc1cc(-c2cnc(C)c(NS(=O)(=O)c3ccc(Cl)cc3F)c2)ccn1 [Compound I-417, methyl (5-{[(4-chloro-2-fluorophenyl)sulfonyl]amino}-6-methyl-3,4′-bipyridin-2′-yl)carbamate]
27 | > 99% | CC(=O)Nc1cc(-c2cnc(C)c(S(=O)(=O)NC34CC(C3)C4)c2)ccn1 [Compound I-418, N-[5-(bicyclo[1.1.1]pent-1-ylsulfamoyl)-6-methyl-3,4′-bipyridin-2′-yl]acetamide]
28 | 56% | CC(=O)Nc1cc(-c2cncc(NC(=O)c3ccc(F)cc3F)c2)ccn1 [Compound I-419, N-(2′-acetamido-3,4′-bipyridin-5-yl)-2,4-difluorobenzamide]
29 | 59% | CC(=O)Nc1cc(-c2cnc3c(c2)S(=O)(=O)N[C@H](c2ccccc2)CO3)ccn1 [Compound I-420, (R)-N-(4-(1,1-dioxido-3-phenyl-3,4-dihydro-2H-pyrido[2,3-b][1,4,5]oxathiazepin-8-yl)pyridin-2-yl)acetamide]
30 | 96% | Cc1nccc(Nc2cc(-c3cncc(C(C)Oc4ccccc4F)c3)ccn2)n1 (stereo not shown) [Compound I-422, 5-[1-(2-fluorophenoxy)ethyl]-N-(2-methylpyrimidin-4-yl)-3,4′-bipyridin-2′-amine]
31 | > 99% | COc1ncc(-c2ccnc(NC(C)=O)c2)cc1C(=O)N(C)c1ccc(F)cc1F [Compound I-423, 2′-acetamido-N-(2,4-difluorophenyl)-6-methoxy-N-methyl-3,4′-bipyridine-5-carboxamide]
32 | > 99% | Cc1nccc(Nc2cc(-c3cnc(C)c(OCCO)c3)ccn2)n1 [Compound I-424, 2-({6-methyl-2′-[(2-methylpyrimidin-4-yl)amino]-3,4′-bipyridin-5-yl}oxy)ethanol]
33 | 100% | CC(=O)Nc1cc(-c2cnc(Cl)c(N3CCCS3(=O)=O)c2C)ccn1 [Compound I-425, N-[6-chloro-5-(1,1-dioxidoisothiazolidin-2-yl)-4-methyl-3,4′-bipyridin-2′-yl]acetamide]
34 | > 99% | COc1ncc(-c2ccnc(NC(C)=O)c2)cc1S(=O)(=O)NC1CCC1 [Compound I-426, N-[5-(cyclobutylsulfamoyl)-6-methoxy-3,4′-bipyridin-2′-yl]acetamide]
35 | > 99% | CN(C)S(=O)(=O)Nc1cc(-c2ccnc(Nc3ccnc(C4CC4)n3)c2)cn2nccc12 [Compound I-427, N′-(6-{2-[(2-cyclopropylpyrimidin-4-yl)amino]pyridin-4-yl}pyrazolo[1,5-a]pyridin-4yl)-N,N-dimethylsulfuric diamide]
36 | > 99% | CC(=O)Nc1cc(-c2cc(OS(=O)(=O)N(C)C)c3ccnn3c2)ccn1 [Compound I-428, 6-(2-acetamidopyridin-4-yl)pyrazolo[1,5-a]pyridin-4-yl dimethylsulfamate]
37 | 96% | CC(=O)Nc1cc(-c2cnc(Cl)c(NS(=O)(=O)c3ccc(C#N)cc3)c2C)ccn1 [Compound I-429, N-(6-chloro-5-{[(4-cyanophenyl)sulfonyl]amino}-4-methyl-3,4′-bipyridin-2′-yl)acetamide]
38 | 92% | Cc1cnc(NC(=O)C2CC2)cc1-c1cnc(Cl)c(NS(=O)(=O)c2ccc(F)cc2F)c1C [Compound I-430, N-(6-chloro-5-{[(2,4-difluorophenyl)sulfonyl]amino}-4,5′-dimethyl-3,4′-bipyridin-2′-yl)cyclopropanecarboxamide]
39 | 74% | CC(=O)Nc1cc(-c2cnc(C)c(C(=O)Nc3ccc(F)cc3F)c2)ccn1 [Compound I-431, 2′-acetamido-N-(2,4-difluorophenyl)-6-methyl-3,4′-bipyridine-5-carboxamide]
40 | 98% | COc1ncc(-c2ccnc(NC(C)=O)c2)cc1S(=O)(=O)Nc1cc(Cl)ccc1Cl [Compound I-432, N-{5-[(2,5-dichlorophenyl)sulfamoyl]-6-methoxy-3,4′-bipyridin-2′-yl}acetamide]
